The source of these data is US20240316047A1, “INHIBITORS OF RNA HELICASE DHX9 AND USES THEREOF” (ACCENT THERAPEUTICS, INC., priority 2022, published 2024).

The target in this assay is Human recombinant DHX9 protein (Homo sapiens (Human), UniProt Q08211). The assay is described as follows: DHX9 ATPase assay (ADP-Glo). Format: biochemical. The conditions noted are these: for IC50: read-out: DHX9 Biochemical Inflection Point.
Chain of Human recombinant DHX9 protein (Q08211 whole entry): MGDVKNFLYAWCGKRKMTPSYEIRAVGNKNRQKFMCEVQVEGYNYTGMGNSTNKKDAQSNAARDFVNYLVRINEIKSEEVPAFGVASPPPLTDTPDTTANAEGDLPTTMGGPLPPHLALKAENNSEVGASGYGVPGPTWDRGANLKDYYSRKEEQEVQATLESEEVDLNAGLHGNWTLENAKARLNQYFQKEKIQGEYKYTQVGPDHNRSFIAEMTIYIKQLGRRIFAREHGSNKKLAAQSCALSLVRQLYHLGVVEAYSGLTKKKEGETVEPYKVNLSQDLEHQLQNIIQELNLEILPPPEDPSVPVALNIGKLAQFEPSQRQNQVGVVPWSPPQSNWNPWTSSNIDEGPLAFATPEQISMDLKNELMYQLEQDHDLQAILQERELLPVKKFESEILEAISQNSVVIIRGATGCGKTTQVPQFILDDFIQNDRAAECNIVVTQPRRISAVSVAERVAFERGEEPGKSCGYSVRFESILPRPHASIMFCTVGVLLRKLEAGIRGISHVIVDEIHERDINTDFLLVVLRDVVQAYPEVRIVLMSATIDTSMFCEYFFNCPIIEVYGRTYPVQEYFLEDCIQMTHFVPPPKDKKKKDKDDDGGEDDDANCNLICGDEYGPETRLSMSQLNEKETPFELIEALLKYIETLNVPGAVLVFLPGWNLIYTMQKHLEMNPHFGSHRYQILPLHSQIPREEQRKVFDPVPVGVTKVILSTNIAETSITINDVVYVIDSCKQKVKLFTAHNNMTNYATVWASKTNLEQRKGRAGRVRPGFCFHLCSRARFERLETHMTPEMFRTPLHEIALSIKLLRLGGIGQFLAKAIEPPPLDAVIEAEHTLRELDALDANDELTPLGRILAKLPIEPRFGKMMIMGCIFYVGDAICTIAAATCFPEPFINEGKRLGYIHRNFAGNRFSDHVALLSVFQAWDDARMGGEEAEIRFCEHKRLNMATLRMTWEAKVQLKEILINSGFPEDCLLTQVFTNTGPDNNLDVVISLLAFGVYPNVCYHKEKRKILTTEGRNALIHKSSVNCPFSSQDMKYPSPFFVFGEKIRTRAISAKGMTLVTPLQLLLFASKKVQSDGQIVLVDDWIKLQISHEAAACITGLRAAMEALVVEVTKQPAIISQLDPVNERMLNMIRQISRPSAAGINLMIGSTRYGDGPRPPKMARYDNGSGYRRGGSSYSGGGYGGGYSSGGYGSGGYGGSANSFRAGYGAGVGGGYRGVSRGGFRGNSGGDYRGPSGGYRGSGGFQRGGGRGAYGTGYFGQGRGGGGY

As for `Cn1cc(C(=O)Nc2cc(Cl)cc(NS(C)(=O)=O)c2)cc1-c1ccc(N2CC(S(C)(=O)=O)C2)cn1` [Example 519], the “DHX9 Biochemical Max Inhibition” value is reported as 71.2 and the IC50 amounted to 0.0081 µM.
The matching figures for `CS(=O)(=O)Nc1cc(Cl)cc(NC(=O)c2cnn([C@H]3CC[C@H]3O)c2)c1` (single isomer, unassigned) [Example 306b]: 74.2% and 0.253 µM.
The matching figures for `Cn1cc(C(=O)Nc2cc(Cl)cc(NS(C)(=O)=O)c2)cc1-c1ccc(N2CC(F)(F)C2)cn1` [Example 595, N-(3-chloro-5-methanesulfonamidophenyl)-5-[5-(3,3-difluoroazetidin-1-yl)pyridin-2-yl]-1-methyl-1H-pyrrole-3-carboxamide]: 69.35 and 0.0175 µM.
For `CS(=O)(=O)Nc1cc(Cl)cc(NC(=O)c2cc(-c3ncc(C(F)(F)F)cc3F)cs2)c1` [Example 371], in that order: 65.3% and 0.14 µM.
For `CS(=N)(=O)Nc1cc(Br)cc(NC(=O)c2cc(-c3ccccn3)cs2)c1` (centres unmarked) [Example 121, N-(3-bromo-5-(methylsulfonoamidimidamido)phenyl)-4-(pyridin-2-yl)thiophene-2-carboxamide], the “DHX9 Biochemical Max Inhibition” value was found to be 63.5% and the IC50 came out at 0.0406 µM.
Turning to `Cc1cc(C(=O)Nc2cc(Cl)cc(NS(=O)(=O)C3CC3)c2)cn1-c1ccc(N2CCOCC2)cn1` [Example 247], the “DHX9 Biochemical Max Inhibition” value was 70% and the IC50 worked out at 0.131 µM.
For `COc1cnn(-c2cc(C(=O)Nc3cc(Cl)cc(NS(C)(=O)=O)c3)sc2C)c1` [Example 436], in that order: 81.4 and 0.0157 µM.
The matching figures for `CS(=O)(=O)Nc1cc(Cl)cc(NC(=O)c2cccc(-n3cccn3)c2)c1` [Example 117]: 55.5% and 0.104 µM.
For `CCS(=O)(=O)Nc1cc(Cl)cc(NC(=O)c2cc(-c3ncc(C(F)(F)F)cn3)c(C)s2)c1` [Example 366], in that order: 76.2% and 0.0467 µM.
Turning to `CS(=O)(=O)Nc1cc(Cl)cc(NC(=O)c2cc3ccccn3c2)c1` [Example 209], the “DHX9 Biochemical Max Inhibition” value amounted to 64% and the IC50 is 0.0894 µM.
The matching figures for `COc1cccc2cc(C(=O)Nc3cc(Cl)cc(NS(C)(=O)=O)c3)sc12` [Example 303]: 57.2% and 4.02 µM.
The matching figures for `CS(=O)(=O)Nc1cc(Cl)cc(NC(=O)c2ccc3nccn3c2)c1` [Example 134]: 40% and 0.808 µM.
For `CS(=O)(=O)Nc1cc(Cl)cc(NC(=O)c2cnn(C3CC4(C3)CN(CC(F)(F)F)C4)c2)c1` [Example 312], in that order: 69.2% and 0.22 µM.
`Cc1sc(C(=O)Nc2cc(Cl)cc(NS(C)(=O)=O)c2)cc1-c1ncc(O)cn1` [Example 583]: the “DHX9 Biochemical Max Inhibition” value stood at 72.5 and the IC50 amounted to 0.0049 µM.
The matching figures for `Cn1cc(C(=O)Nc2cc(Cl)cc(NS(C)(=O)=O)c2)cc1-c1ccc(N2CCOCC2)cn1` [Example 273]: 71.4% and 0.0065 µM.
As for `Cc1sc(C(=O)Nc2cc(Cl)cc(NS(C)(=O)=O)c2)cc1-c1ncccc1CC(=O)N(C)C` [Example 385], the “DHX9 Biochemical Max Inhibition” value came out at 78.1% and the IC50 was determined as 0.0838 µM.
The matching figures for `Cn1cc(C(=O)Nc2cc(Cl)cc(NS(C)(=O)=O)c2)cc1-c1ncc(OC(C)(C)C)cn1` [Example 556]: 64.8 and 0.0206 µM.
The matching figures for `COc1ccc(-c2cc(C(=O)Nc3cc(Cl)cc(NS(C)(=O)=O)c3)cn2C)nc1` [Example 573]: 82.8 and 0.0155 µM.
For `COc1cc(N2CC(F)(F)C2)cnc1-c1cc(C(=O)Nc2cc(Cl)cc(NS(C)(=O)=O)c2)cn1C` [Example 462], in that order: 82.4 and 0.0091 µM.
As for `CCOc1cnc(-c2cc(C(=O)Nc3cc(Cl)cc(NS(C)(=O)=O)c3)cn2C)c(F)c1` [Example 453], the “DHX9 Biochemical Max Inhibition” value turned out to be 90.7 and the IC50 worked out at 0.0122 µM.
Regarding `Cc1sc(C(=O)Nc2cc(Cl)cc(NS(C)(=O)=O)c2)cc1-c1ncc(F)cc1N1CCN(S(C)(=O)=O)CC1` [Example 506], the “DHX9 Biochemical Max Inhibition” value is given as 47.4 and the IC50 was 0.184 µM.
The matching figures for `Cc1sc(C(=O)Nc2cc(Cl)cc(NS(C)(=O)=O)c2)cc1-c1ncc(N2CCC(F)(F)C2)cc1F` [Example 484]: 66.5 and 0.0335 µM.
The matching figures for `CS(=O)(=O)Nc1cc(Cl)cc(NC(=O)c2cnn(-c3ncccc3OCc3ccccn3)c2)c1` [Example 63]: 66.2% and 0.0839 µM.
The matching figures for `CCS(=O)(=O)Nc1cc(Cl)cc(NC(=O)c2cc(-c3ncc(N4CC(F)(F)C4)cn3)c(C)s2)c1` [Example 463]: 77.1 and 0.0085 µM.
Consider `CS(=O)(=O)Nc1cc(Cl)cc(NC(=O)c2cc3c(C(F)(F)F)cccn3c2)c1` [Example 302], for which the “DHX9 Biochemical Max Inhibition” value stood at 54.6% and the IC50 came to 0.64 µM.
The matching figures for `Cc1sc(C(=O)Nc2cc(Cl)cc(NS(C)(=O)=O)c2)cc1-c1ncc(OC2CNC2)cn1` [Example 636, 4-[5-(azetidin-3-yloxy)pyrimidin-2-yl]-N-(3-chloro-5-methanesulfonamidophenyl)-5-methylthiophene-2-carboxamide]: 70.3 and 0.0122 µM.
With `CS(=O)(=O)Nc1cc(Br)cc(NC(=O)c2cc(-n3cccn3)cs2)c1` [Example 60], the “DHX9 Biochemical Max Inhibition” value was 63% and the IC50 was 0.0078 µM.
The matching figures for `COc1ccc(-n2cc(C(=O)Nc3cc(Cl)cc(NS(C)(=O)=O)c3)cc2C)nc1` [Example 391]: 78.5 and 0.0089 µM.
The matching figures for `COc1cc(F)cnc1-c1cc(C(=O)Nc2cc(Cl)cc(NS(C)(=O)=O)c2)cn1C` [Example 568, N-(3-chloro-5-methanesulfonamidophenyl)-5-(5-fluoro-3-methoxypyridin-2-yl)-1-methylpyrrole-3-carboxamide]: 77.3 and 0.0079 µM.
For `Cc1sc(C(=O)Nc2cc(Br)cc(NS(C)(=N)=O)c2)cc1-c1ccccn1` (centres unmarked) [Example 123], in that order: 72.8% and 0.0148 µM.
Regarding `CS(=O)(=O)Nc1cc(F)cc(NC(=O)c2cc(Br)cs2)c1` [Example 71, 4-bromo-N-(3-fluoro-5-(methylsulfonamido)phenyl)thiophene-2-carboxamide], the “DHX9 Biochemical Max Inhibition” value is recorded as 77.8% and the IC50 came out at 0.171 µM.
The matching figures for `Cc1sc(C(=O)Nc2cc(Cl)cc(NS(C)(=O)=O)c2)cc1-c1ncc(N2CC(F)(F)C2)cn1` [Example 510]: 83.7 and 0.0082 µM.
On to `CS(=O)(=O)Nc1cc(Cl)cc(NC(=O)c2cc3cnccn3c2)c1` [Example 330], for which the “DHX9 Biochemical Max Inhibition” value came out at 61.9% and the IC50 turned out to be 0.088 µM.
The matching figures for `CS(=O)(=O)Nc1cc(Cl)cc(NC(=O)c2cccc(-c3cccc(C#N)c3)c2)c1` [Example 13]: 41.7% and 1.15 µM.
The matching figures for `Cc1cc(C(=O)Nc2cc(Cl)cc(NS(C)(=O)=O)c2)cn1-c1ncc(OC(C)(C)C)cc1F` [Example 662]: 66.1 and 0.068 µM.
Regarding `CS(=O)(=O)Nc1cc(Cl)cc(NC(=O)c2cc(-c3ncccc3COc3cc(F)cc(F)c3)cs2)c1` [Example 228], the “DHX9 Biochemical Max Inhibition” value was 67.2% and the IC50 was 0.0655 µM.
For `CS(=O)(=O)Nc1cc(Cl)cc(NC(=O)c2cccc(-c3ccnc(Cl)c3)c2)c1` [Example 102, N-(3-chloro-5-(methylsulfonamido)phenyl)-3-(2-chloropyridin-4-yl)benzamide], in that order: 61.8% and 0.762 µM.
For the compound `Cn1cc(C(=O)Nc2cc(Cl)cc(NS(C)(=O)=O)c2)cc1-c1ccc(N2CCN(C(=O)C3CCCC3)CC2)cn1` [Example 592], the “DHX9 Biochemical Max Inhibition” value is listed as 77.5 and the IC50 was 0.0541 µM.
For `CS(=O)(=O)Nc1cc(Cl)cc(NC(=O)c2cnn(-c3ncccc3Oc3ncccn3)c2)c1` [Example 196], in that order: 68.9% and 0.0786 µM.
The matching figures for `Cc1cc(C(=O)Nc2cc(Br)cc(NS(C)(=O)=O)c2)cn1C1CCCCC1` [Example 85, N-(3-bromo-5-(methylsulfonamido)phenyl)-1-cyclohexyl-5-methyl-1H-pyrrole-3-carboxamide]: 59.5% and 0.099 µM.
For `Cc1cc(C(=O)Nc2cc(Cl)cc(NS(C)(=O)=O)c2)cn1-c1ncc(S(C)(=O)=O)cn1` [Example 656], in that order: 71.3 and 0.0307 µM.
For `Cc1cccnc1-c1ccc(C(=O)Nc2cc(Cl)cc(NS(C)(=O)=O)c2)s1` [Example 386], the “DHX9 Biochemical Max Inhibition” value is listed as 59.2% and the IC50 came out at 0.42 µM.
For the compound `CS(=O)(=O)Nc1cc(Cl)cc(NC(=O)c2cnn(-c3cc(N4CCNCC4)ccn3)c2)c1` [Example 147], the “DHX9 Biochemical Max Inhibition” value amounted to 76.5% and the IC50 was 0.0063 µM.
The matching figures for `CC(C)Oc1cnc(-c2csc(C(=O)Nc3cc(Cl)cc(NS(C)(=O)=O)c3)c2)nc1` [Example 457]: 58.7 and 0.0202 µM.
For `CS(=O)(=O)Nc1cc(Cl)cc(NC(=O)c2cnn(-c3ccc(N4CC5CCC(C4)O5)cn3)c2)c1` [Example 191], in that order: 67.6% and 0.0042 µM.
As to `CCCS(=O)(=O)Nc1cc(Cl)cc(NC(=O)c2cc(-c3ccc(N4CC(F)(F)C4)cn3)n(C)c2)c1` [Example 531], the “DHX9 Biochemical Max Inhibition” value is on record as 72.3 and the IC50 is 2.6 µM.
